# Assay results reported in patent US20220193209A1, “COMPOSITIONS AND METHODS FOR REACTIVATING LATENT IMMUNODEFICIENCY VIRUS AND/OR TREATING IMMUNODEFICIENCY VIRUS INFECTION” (The J. David Gladstone institutes, a testamentary trust …, priority 2019, published 2022).
# How the values were obtained:
# HIV LTR = assay: Chromatin immunoprecipitation (ChIP) at the HIV LTR in J-Lat cells; assay type: cell-based, HIV-1
# Experimental: J-Lat A2 and A72 cells were treated with TNFα (10 ng/ml) for 18 h. Cells were fixed with 1% formaldehyde (v/v) in fixation buffer (1 mM EDTA, 0.5 mM EGTA, 50 mM Hepes, pH 8.0, 100 mM NaCl), and fixation was stopped after 10 min by addition of glycine to 125 mM. The cell membrane was lysed for 15 min on ice (5 mM Pipes, pH 8.0, 85 mM KCl, 0.5% NP40, protease inhibitors). After washing with nuclear swell buffer (25 mM HEPES, pH 7.5, 4 mM KCl, 1 Mm DTT, 0.5% NP-40, 0.5 mM PMSF) and micrococcal nuclease (MNase) digestion buffer (20 mM Tris pH 7.5, 2.5 mM CaCl2), 5 mM NaCl, 1 mM DTT, 0.5% NP-40), the pellet was resuspended in MNase buffer (15 mM Tris-HCl, pH 7.5, 5 mM MgCl2, 1 mM CaCl2), and 25 mM NaCl). Subsequently, samples were incubated with MNase (New England Biolabs) for 10 min at RT. The reaction was quenched with 0.5 M EDTA and incubated on ice for 5 min. Cells were lysed (1% SDS, 10 mM EDTA, 50 mM Tris-HCl, pH 8.1, protease inhibitors), and chromatin DNA was sheared to 200-1000-bp average size through sonication (Ultrasonic Processor CP-130, Cole Parmer). Cellular debris was pelleted, and the supernatant was recovered. Protein A/G Sepharose beads were blocked with single-stranded salmon sperm DNA and BSA, washed and resuspended in immunoprecipitation buffer. Blocked protein A/G Sepharose beads were added to the digested chromatin fractions and rotated at 4° C. for 2 h to preclear chromatin. Lysates were incubated overnight at 4° C. with 5 μg of FOXO1, RelA, histone H4, H4K20me1, H4K20me2, H4K20me3 antibodies, or IgG control. After incubation with protein A/G agarose beads for 2 h and washing three times with low salt buffer (0.1% SDS, 1% Triton X-100, 2 mM EDTA, 20 mM Tris-HCl, pH 8.1, 150 mM NaCl), one time with high salt buffer (0.1% SDS, 1% Triton X-100, 2 mM EDTA, 20 mM Tris-HCl, pH 8.1, 500 mM NaCl) and twice with TE-buffer (1 mM EDTA, 10 mM Tris-HCl, pH 8.1), chromatin was eluted and recovered with Agencourt AMPure XP beads (Beckman Coulter). Bound chromatin and input DNA were treated with RNase H (New England Biolabs) and Proteinase K (Sigma-Aldrich) at 37° C. for 30 min. Immunoprecipitated chromatin was quantified by real-time PCR using the Maxima SYBR Green qPCR Master Mix (Thermo Scientific) and the ABI 7700 Sequence Detection System (Applied Biosystems). The SDS 2.4 software (Applied Biosystems) was used for analysis. The specificity of each PCR reaction was confirmed by melting curve analysis using the Dissociation Curve software (Applied Biosystems). All chromatin immunoprecipitations and qPCRs were repeated at least three times, and representative results were shown.
# Because ATF4 can be recruited to the HIV LTR (Jiang, G. et al. Downloaded from. MBio 8, 1518-1534 (2018)) and the related human T-cell leukemia virus type 1 (HTLV-1) Reddy, T. et al. Oncogene 14, 2785-2792 (1997)), chromatin immunoprecipitation (ChIP) experiments were performed to test whether ATF4 binds the HIV LTR in response to FOXO1 inhibition. While low levels of ATF4 bound HIV LTR chromatin in untreated J-Lat cells, its recruitment was 3-fold enriched after AS1842856 treatment (FIG. 9, Panel A). […] The nuclear factor of activated T cells (NFAT) can occupy the NF-κB binding sites in the HIV LTR, and is activated through calcium mobilization after T cell activation rather than protein kinase C activation as for NF-κB. […]
# [1] = test system: latent HIV in CD4+ T cells from HIV-infected patients; assay: Cell-associated HIV RNA by ddPCR in CD4+ T cells of HIV-infected patients on antiretroviral therapy, ex vivo; assay type: cell-based; details: 100 and 1000 nM, 3 days, five patients
# Experimental: Cells were treated ex vivo with two concentrations of AS1842856 (100 and 1000 nM), prostratin (250 nM) or combinations thereof for 3 days, and HIV RNA induction was measured by digital droplet PCR (ddPCR).
# CD4+ T cells = assay type: cell-based, human
# Experimental: CD69 and CD25 expression was measured by flow cytometry gating on CD3^+CD4^+ T cells using FITC-labeled antibodies for CD3 (11-0048-42, eBioscience), APC-conjugated CD25 antibodies (17-0259-42, eBioscience), PerCP-labeled antibodies for CD4 (300528, Biolegend), and CD69-V450 (560740, BD Horizon). Staining was performed for 30 min on ice in FACS buffer (PBS, 2% FBS), and samples were analyzed on a BD Biosciences LSRII flow cytometer. Shown are the percentages of positive cells relative to total CD3^+ CD4^+ T cells or median fluorescence intensity (MFI).
# FIG. 6, Panel A, the cell surface CD69 and CD25 T cell activation markers were measured by FACS in CD4^+ T cells upon AS1842856 treatment for 24, 48 and 72 h. 10 μg/mLαCD3 and 1 μg/mL αCD28 was used as control. Data is shown as percentage of positive cells and as mean±SD of two biological replicates. FIG. 6, Panel B, depicts the same as in FIG. 6, Panel A, but measuring FOXO1 target genes (IL7R, KLRG1, CD62L) after 48 h of AS1842856 treatment (n=3). […]. Cells were allowed to rest for 6 days before 72 h reactivation was induced with PHA/IL-2 and 10 μg/mL αCD3 and 1 μg/mLαCD28. Data are mean±SEM of at least 3 individual donors. Data represent average SD of 9-13 independent experiments. […] Cell viability was assessed by Trypan Blue exclusion.
smiles,measurement,setting,value
"CCn1cc(C(=O)O)c(=O)c2c(N)c(F)c(NC3CCCCC3)cc21 [AS1842856, 5-amino-7-(cyclohexylamino)-1-ethyl-6-fluoro-4-oxo-1,4-dihydro-quinoline-3-carboxylic acid]",NFAT at the HIV LTR,HIV LTR,markedly enriched
same,RNA polymerase II recruitment to the HIV promoter,HIV LTR,marked increase
same,RelA recruitment to the HIV LTR,HIV LTR,not recruited
same,ATF4 recruitment to HIV LTR chromatin,HIV LTR; 1000 nM vs untreated,3 fold
same,HIV RNA induction,[1],two-fold
same,generalized T cell activation (CD69 and CD25 expression),CD4+ T cells,not observed
